One may read the Ki as a measure of affinity in units of concentration, obtained from inhibition or displacement. Lower therefore signals tighter binding. For orientation: IC50 means the concentration that inhibits the measured activity by half. Low values mean higher potency, high ones lower potency. One may read the ED50 as the dose at which the effect has come halfway, by size or by number of responders.

Where a SMILES comes first, the peptide text is derived from it.

Six molecules from patent US20200308220A1, “AROMATIC-CATIONIC PEPTIDES CONJUGATED TO AN[…] THEIR USE IN TREATING COMPLEX REGIONAL PAIN SYNDROME” (priority 2015, published 2020) can be followed below.

One data set has as its system CPIP rats. Briefly: Chronic post-ischemia pain (CPIP) rat model of CRPS-I, reversal of mechanical allodynia. The procedure: H-Dmt-D-Arg-Phe-Lys(NH-TEMPO)-NH2 was tested in a chronic post-ischemia pain (CPIP) rat model (see Coderre et al., Pain (2004) 112, 94-105) of CRPS-I in comparison with [Dmt^1]DALDA and morphine (subcutaneous (s.c.) administration). The analgesic potencies (ED50 values) of the compounds were determined based on their ability to reverse mechanical allodynia in CPIP rats (Table 6).

The target in the next data set is T1, δ receptors (Rattus norvegicus, UniProt P33533).
T1 construct: from tissue; host or cells: rat brain membranes
T1 sequence (P33533 whole entry): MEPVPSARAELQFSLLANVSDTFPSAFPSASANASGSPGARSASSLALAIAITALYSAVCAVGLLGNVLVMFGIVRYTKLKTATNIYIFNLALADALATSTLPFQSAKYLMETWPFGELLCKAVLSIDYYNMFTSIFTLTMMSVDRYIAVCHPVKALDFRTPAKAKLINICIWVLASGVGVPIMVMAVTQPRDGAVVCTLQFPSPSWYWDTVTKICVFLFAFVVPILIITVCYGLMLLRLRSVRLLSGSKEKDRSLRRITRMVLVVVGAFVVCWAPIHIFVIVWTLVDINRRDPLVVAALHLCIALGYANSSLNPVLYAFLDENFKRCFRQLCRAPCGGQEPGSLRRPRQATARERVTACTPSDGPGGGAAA
Briefly: Receptor binding, displacement of [3H]DSLET from rat brain membrane binding sites. Here is the method:
(§1) Peptide conjugates of Table 5 were tested in functional assays based on inhibition of electrically evoked contractions of the guinea pig ileum (GPI) and the mouse vas deferens (MVD). The GPI assay is representative for μ opioid receptor (MOR) interactions, whereas in the MVD assay opioid effects are primarily mediated by the δ opioid receptor (DOR). The assays were carried out as described in DiMaio et al., J. Med. Chem. (1982) 25, 1432-1438. Binding affinities for μ and δ receptors were determined by displacing, respectively, [^3H]DAMGO and [^3H]DSLET from rat brain membrane binding sites (see Schiller et al., Biochem. Biophys. Res. Commun. (1978) 85, 1332-1338).
Background: In a radioligand displacement assay an active substance lowers the binding of a labelled ligand.

The target in a further data set is T2, μ receptors (Rattus norvegicus, UniProt P33535).
T2 construct: from tissue; host or cells: rat brain membranes
T2 sequence (P33535 whole entry): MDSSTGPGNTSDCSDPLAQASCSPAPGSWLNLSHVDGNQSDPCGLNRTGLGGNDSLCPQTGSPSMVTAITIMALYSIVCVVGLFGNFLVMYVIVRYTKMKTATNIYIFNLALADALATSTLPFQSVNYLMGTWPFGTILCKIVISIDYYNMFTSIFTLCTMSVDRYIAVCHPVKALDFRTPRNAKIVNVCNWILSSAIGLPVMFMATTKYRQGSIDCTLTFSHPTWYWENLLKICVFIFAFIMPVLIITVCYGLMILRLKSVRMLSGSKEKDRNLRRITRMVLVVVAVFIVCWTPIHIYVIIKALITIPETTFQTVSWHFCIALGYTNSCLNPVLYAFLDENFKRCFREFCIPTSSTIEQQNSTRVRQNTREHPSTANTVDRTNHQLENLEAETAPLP
The data set is described as follows: Receptor binding, displacement of [3H]DAMGO from rat brain membrane binding sites. Here is the method: as §1

The target in another data set is T3, δ opioid receptor (DOR) (Mus musculus, UniProt P32300).
T3 construct: the guinea pig ileum (GPI) and the mouse vas deferens (MVD); from tissue; host or cells: mouse vas deferens
T3 sequence (P32300 whole entry): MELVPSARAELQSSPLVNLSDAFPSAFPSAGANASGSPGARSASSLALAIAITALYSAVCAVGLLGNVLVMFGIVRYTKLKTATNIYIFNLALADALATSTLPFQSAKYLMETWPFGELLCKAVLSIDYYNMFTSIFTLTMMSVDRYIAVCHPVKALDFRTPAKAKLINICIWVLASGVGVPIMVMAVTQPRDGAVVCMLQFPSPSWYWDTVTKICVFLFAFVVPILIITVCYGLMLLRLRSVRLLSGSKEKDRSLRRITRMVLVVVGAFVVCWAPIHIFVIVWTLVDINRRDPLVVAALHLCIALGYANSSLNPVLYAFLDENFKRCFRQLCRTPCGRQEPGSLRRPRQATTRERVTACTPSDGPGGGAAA
Briefly: Inhibition of electrically evoked contractions of the mouse vas deferens (MVD). Format: cell-based. Here is the method:
as §1

For `Cc1cc(O)cc(C)c1C[C@H](N)C(=O)N[C@H](CCCNC(=N)N)C(=O)N[C@@H](Cc1ccccc1)C(=O)NC(CCCCNC1CC(C)(C)N([O])C(C)(C)C1)C(N)=O` (stereo partly drawn) [H-Dmt-D-Arg-Phe-Lys(NH-TEMPO)-NH2], the “crossing the blood-brain barrier” value in the data set on CPIP rats (inferred from centrally mediated analgesic effect after s.c. dosing) was “capable of crossing the blood-brain barrier”. For the same molecule, the Ki on δ receptors came to 30.4 nM; at μ receptors it was 0.263 nM. The molecule further gave an IC50 against δ opioid receptor (DOR) of 1.15 nM.

Take `Cc1cc(O)cc(C)c1C[C@H](N)C(=O)N[C@H](CCCNC(=N)N)C(=O)N[C@@H](Cc1ccccc1)C(=O)N[C@@H](CCCCNC(=O)[C@@]1(C)CCc2c(C)c(O)c(C)c(C)c2O1)C(N)=O` [H-Dmt-D-Arg-Phe-Lys(Tro[R])-NH2]: the Ki stood at 3.64 nM at δ receptors and 0.273 nM at μ receptors. The molecule further displayed an IC50 at δ opioid receptor (DOR) of 0.847 nM.

Consider `Cc1cc(O)cc(C)c1C[C@H](N)C(=O)N[C@H](CCCNC(=N)N)C(=O)N[C@@H](Cc1ccccc1)C(=O)N[C@@H](CCCCNC(=O)[C@]1(C)CCc2c(C)c(O)c(C)c(C)c2O1)C(N)=O` [H-Dmt-D-Arg-Phe-Lys(Tro[S])-NH2, H-Dmt-D-Arg-Phe-Lys(Tro[S])—NH2], for which the results for the Ki at δ receptors and on μ receptors were 3.48 nM and 0.252 nM, respectively. For the same molecule, the IC50 at δ opioid receptor (DOR) worked out at 3.76 nM.

As for `Cc1cc(O)cc(C)c1C[C@H](N)C(=O)N[C@H](CCCNC(=N)N)C(=O)N[C@@H](Cc1ccccc1)C(=O)N[C@@H](CCCCN)C(N)=O` [H-Dmt-D-Arg-Phe-Lys-NH2], the “ED50 ± SEM (analgesic potency)” value with CPIP rats (reversal of mechanical allodynia in CPIP rats, s.c. administration) stood at 0.103 ± 0.046 mg/kg.

Take `Cc1cc(O)cc(C)c1C[C@H](N)C(=O)N[C@H](CCCNC(=N)N)C(=O)N[C@@H](Cc1ccccc1)C(=O)N[C@@H](CCCCN)C(=O)NCCC(=O)NC1CC(C)(C)N([O])C(C)(C)C1` [H-Dmt-D-Arg-Phe-Lys-NH—(CH2)2—CO—NH-TEMPO] (HELM PEPTIDE1{[Cc1cc(O)cc(C)c1C[C@H](N)C(=O)[*:2]].[dR].F.K.[bAla].[CC1(C)CC(N[*:1])CC(C)(C)N1[O]]}$$$$V2.0): the inhibitory constant (Ki) at δ receptors was determined as 2.15 nM; at μ receptors, 4.56 nM. Further, inhibition at δ opioid receptor (DOR) was half-maximal at 262 nM (IC50).

Turning to `CN1CC[C@]23c4c5ccc(O)c4O[C@H]2[C@@H](O)C=C[C@H]3[C@H]1C5` [morphine], the ED50 with CPIP rats (Rattus norvegicus, sc, read-out: ED50 ± SEM (analgesic potency)) turned out to be 1.55 ± 0.664 mg/kg. Further, in the data set with CPIP rats (relative to morphine (=1), CPIP rats, s.c.), the “Potency Ratio” value is on record as 1.
